Measurements as given in US7297551B2, “Recombinant proteins and peptides for endotoxin biosensors, endotoxin removal, and anti-microbial and anti-endotoxin therapeutics” (priority 1998, dated 2007).

Target: T1, rFCEE (truncated C. rotundicauda Factor C, CrFC21EE, amino acids 1-766, from P. pastoris) (Carcinoscorpius rotundicauda, UniProt Q26422)
T1 construct: Pichia pastoris, Biomax-50 enriched
T1 sequence (Q26422 1-766): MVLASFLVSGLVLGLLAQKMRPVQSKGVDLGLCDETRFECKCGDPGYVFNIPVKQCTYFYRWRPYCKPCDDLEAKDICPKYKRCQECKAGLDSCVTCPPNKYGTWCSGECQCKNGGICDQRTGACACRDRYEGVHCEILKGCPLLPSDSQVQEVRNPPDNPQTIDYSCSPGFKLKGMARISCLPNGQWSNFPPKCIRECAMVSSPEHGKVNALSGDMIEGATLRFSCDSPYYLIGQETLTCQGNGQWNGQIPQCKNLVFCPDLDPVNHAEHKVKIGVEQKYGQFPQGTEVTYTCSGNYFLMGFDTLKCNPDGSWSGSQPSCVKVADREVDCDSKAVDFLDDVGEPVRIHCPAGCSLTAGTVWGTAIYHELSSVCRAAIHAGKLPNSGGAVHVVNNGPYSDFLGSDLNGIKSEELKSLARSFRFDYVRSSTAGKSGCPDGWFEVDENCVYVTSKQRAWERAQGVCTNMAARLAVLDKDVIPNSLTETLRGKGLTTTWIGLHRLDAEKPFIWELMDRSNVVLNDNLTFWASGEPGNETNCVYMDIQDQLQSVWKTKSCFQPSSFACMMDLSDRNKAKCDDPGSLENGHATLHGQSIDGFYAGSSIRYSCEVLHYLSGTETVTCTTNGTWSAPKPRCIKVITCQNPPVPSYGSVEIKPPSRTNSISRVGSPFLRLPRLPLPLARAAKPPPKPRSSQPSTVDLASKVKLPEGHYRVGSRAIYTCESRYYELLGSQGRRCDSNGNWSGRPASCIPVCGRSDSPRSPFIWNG
Assay: Modified Western blot of LPS/lipid A
Format: binding
Conditions: compared with rFC
Description: LPS from E. coli 055:B5 (Sigma) was reconstituted to 2 μg/μl, and diphosphoryl lipid A from E. coli K12, D31m4 LPS (List Biologicals, Inc., USA) was made up to 1 μg/μl. The LPS-binding assay was based on modifications of earlier described protocols (45,61). Briefly, 10 μg aliquots of LPS/lipid A were electrophoresed on a denaturing 15% SDS-polyacrylamide gel and electroblotted onto Immobilon™ PVDF membrane. The membrane was cut into strips and each LPS/lipid A strip was subsequently incubated with 300 μg of proteins containing rFC. Detection of rFC binding to lipid A was accomplished by incubation with anti-Factor C antibody followed by alkaline phosphatase-conjugated secondary goat anti-rabbit antibody (Dako) and BCIP/NBT colorimetric substrate (Moss, Inc., USA).

## lipid A
  binding to lipid A moiety of LPS: less strongly
